For six compounds, remaining binding results are on record in patent US12240844B2 (Voronoi, Inc., priority 2019, dated 2025).

SMILES strings stand for the structures.

What all share (assay): scanMAX Kinase panel (DiscoverX), % control
Holding throughout (format): binding
Settings in all cases: <35% = active

The target of test [1] is T1, ALK (C1156Y) (Homo sapiens, UniProt Q9UM73, C1156Y).
T1 construct: purchased DiscoverX
How it is done: (§1) Specifically, for Examples 162, 160, 105, 217, 205, 96, 207, 184, 206, 221, 238, and 237 selected among the example compounds of the present invention, it was decided to measure enzyme (kinase) selectivity by DiscoverX, and the experiment was conducted using a panel for scanMAX™ Kinase analysis. At this time, the concentration of the drug treated with the enzyme was 1 uM in DMSO, the control percentage (% control) was determined in the same way as in Equation 1 below, and the results were shown in Table 6 below. [formula] Here, the positive control refers to a compound showing a control percentage of 0%, and the negative control is DMSO, indicating a control percentage of 100%. Also, in the enzyme selectivity of the present invention, if the control percentage for each enzyme was <35% (i.e., less than 35%), it was determined to have activity against the relevant enzyme.

The target of test [2] is T2, ALK (Homo sapiens, UniProt Q9UM73).
T2 construct: purchased DiscoverX
How it is done:
as §1

The target in test [3] is T3, ALK (L1196M) (Homo sapiens, UniProt Q9UM73, L1196M).
T3 construct: purchased DiscoverX
The protocol: as §1

Test [4] has as its target T4, CLK1 (Homo sapiens, UniProt P49759).
T4 construct: purchased DiscoverX
How it is done: as §1

In test [5] the target is T5, CLK2 (Homo sapiens, UniProt P49760).
T5 construct: purchased DiscoverX
The protocol:
as §1

Test [6] deals with T6, CLK3 (Homo sapiens, UniProt P49761).
T6 construct: purchased DiscoverX
The protocol: as §1

In test [7] the target is T7, CLK4 (Homo sapiens, UniProt Q9HAZ1).
T7 construct: purchased DiscoverX
The protocol: as §1

Test [8] has as its target T8, DYRK1B (Homo sapiens, UniProt Q9Y463).
T8 construct: purchased DiscoverX
The protocol:
as §1

Test [9] concerns the target T9, DYRK2 (Homo sapiens, UniProt Q92630).
T9 construct: purchased DiscoverX
T9 sequence (Q92630 1-601): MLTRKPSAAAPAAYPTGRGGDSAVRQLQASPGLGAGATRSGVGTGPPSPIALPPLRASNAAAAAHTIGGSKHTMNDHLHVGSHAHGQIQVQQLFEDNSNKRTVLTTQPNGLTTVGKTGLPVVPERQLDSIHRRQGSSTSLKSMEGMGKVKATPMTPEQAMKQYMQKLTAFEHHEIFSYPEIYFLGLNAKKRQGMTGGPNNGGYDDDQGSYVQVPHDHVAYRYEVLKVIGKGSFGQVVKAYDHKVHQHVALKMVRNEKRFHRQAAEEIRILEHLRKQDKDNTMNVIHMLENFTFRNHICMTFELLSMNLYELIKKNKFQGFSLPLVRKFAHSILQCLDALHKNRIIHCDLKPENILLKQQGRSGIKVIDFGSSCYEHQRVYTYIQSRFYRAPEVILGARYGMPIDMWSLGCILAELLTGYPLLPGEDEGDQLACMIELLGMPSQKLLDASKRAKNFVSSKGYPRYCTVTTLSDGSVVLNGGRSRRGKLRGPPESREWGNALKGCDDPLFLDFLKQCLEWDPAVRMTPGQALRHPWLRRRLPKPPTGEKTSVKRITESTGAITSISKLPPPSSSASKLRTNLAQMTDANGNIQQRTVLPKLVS
How it is done: as §1

Test [10] has as its target T10, GAK (Homo sapiens, UniProt O14976).
T10 construct: purchased DiscoverX
T10 sequence (O14976 1-1311): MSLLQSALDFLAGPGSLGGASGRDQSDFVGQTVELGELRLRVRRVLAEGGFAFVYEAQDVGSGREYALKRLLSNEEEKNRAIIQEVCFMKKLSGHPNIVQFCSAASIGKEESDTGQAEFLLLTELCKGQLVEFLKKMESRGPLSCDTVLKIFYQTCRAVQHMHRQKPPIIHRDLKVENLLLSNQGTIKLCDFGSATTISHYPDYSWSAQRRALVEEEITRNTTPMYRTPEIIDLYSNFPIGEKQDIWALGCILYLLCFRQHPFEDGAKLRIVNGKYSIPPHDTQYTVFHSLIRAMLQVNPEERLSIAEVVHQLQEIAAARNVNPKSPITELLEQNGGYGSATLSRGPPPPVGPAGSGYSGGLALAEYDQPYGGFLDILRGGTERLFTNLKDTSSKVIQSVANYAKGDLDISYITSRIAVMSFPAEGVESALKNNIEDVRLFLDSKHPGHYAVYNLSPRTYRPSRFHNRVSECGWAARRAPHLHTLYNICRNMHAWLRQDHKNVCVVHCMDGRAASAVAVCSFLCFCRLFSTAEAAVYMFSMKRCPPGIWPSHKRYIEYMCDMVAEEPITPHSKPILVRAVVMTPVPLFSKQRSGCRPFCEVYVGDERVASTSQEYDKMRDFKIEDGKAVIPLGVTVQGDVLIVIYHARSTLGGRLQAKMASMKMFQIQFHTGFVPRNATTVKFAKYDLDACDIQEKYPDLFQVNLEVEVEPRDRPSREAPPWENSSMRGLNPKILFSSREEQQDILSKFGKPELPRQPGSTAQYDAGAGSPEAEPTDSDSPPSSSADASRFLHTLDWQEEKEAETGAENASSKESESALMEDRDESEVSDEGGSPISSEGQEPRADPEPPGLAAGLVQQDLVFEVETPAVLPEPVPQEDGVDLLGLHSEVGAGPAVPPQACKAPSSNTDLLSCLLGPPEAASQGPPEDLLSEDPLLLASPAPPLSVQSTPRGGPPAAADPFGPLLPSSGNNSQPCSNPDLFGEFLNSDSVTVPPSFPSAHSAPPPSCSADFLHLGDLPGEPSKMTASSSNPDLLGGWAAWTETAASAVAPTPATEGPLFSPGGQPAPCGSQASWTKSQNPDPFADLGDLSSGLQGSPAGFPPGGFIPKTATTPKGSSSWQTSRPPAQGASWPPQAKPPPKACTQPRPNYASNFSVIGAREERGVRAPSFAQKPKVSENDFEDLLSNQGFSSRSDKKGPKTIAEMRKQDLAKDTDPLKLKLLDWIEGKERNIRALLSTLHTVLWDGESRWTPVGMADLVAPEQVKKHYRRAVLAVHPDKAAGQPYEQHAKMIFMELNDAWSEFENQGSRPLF
The protocol:
as §1

For test [11], the target named is T11, MYLK (Homo sapiens, UniProt Q15746).
T11 construct: purchased DiscoverX
The protocol: as §1

T6 sequence (P49761 whole entry): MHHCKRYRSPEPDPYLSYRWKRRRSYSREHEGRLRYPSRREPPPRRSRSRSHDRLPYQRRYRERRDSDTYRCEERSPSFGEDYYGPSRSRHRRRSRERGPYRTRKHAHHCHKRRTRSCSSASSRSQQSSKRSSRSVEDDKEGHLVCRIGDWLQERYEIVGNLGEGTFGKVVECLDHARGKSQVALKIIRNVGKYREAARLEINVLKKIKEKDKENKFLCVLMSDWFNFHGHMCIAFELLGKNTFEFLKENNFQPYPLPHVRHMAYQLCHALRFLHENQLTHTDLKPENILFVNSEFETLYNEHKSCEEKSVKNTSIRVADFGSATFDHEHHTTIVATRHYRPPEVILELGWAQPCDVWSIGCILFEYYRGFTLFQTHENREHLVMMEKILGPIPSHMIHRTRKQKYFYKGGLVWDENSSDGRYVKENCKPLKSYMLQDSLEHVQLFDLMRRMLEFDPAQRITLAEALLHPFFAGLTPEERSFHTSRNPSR
T4 sequence (P49759 whole entry): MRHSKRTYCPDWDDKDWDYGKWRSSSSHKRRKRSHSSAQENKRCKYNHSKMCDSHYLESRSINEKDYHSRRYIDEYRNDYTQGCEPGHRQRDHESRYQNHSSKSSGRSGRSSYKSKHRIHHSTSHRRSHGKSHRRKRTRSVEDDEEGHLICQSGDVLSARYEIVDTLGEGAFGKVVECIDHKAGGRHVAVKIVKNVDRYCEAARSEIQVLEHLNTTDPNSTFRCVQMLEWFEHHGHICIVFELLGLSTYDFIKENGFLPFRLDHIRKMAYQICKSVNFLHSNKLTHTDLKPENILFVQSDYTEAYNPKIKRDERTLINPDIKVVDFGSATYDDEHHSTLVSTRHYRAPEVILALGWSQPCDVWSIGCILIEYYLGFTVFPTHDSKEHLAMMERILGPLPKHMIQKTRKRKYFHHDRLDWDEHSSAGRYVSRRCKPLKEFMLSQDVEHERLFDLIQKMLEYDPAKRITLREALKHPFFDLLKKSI
T1 sequence (Q9UM73 19-1620 C1156Y): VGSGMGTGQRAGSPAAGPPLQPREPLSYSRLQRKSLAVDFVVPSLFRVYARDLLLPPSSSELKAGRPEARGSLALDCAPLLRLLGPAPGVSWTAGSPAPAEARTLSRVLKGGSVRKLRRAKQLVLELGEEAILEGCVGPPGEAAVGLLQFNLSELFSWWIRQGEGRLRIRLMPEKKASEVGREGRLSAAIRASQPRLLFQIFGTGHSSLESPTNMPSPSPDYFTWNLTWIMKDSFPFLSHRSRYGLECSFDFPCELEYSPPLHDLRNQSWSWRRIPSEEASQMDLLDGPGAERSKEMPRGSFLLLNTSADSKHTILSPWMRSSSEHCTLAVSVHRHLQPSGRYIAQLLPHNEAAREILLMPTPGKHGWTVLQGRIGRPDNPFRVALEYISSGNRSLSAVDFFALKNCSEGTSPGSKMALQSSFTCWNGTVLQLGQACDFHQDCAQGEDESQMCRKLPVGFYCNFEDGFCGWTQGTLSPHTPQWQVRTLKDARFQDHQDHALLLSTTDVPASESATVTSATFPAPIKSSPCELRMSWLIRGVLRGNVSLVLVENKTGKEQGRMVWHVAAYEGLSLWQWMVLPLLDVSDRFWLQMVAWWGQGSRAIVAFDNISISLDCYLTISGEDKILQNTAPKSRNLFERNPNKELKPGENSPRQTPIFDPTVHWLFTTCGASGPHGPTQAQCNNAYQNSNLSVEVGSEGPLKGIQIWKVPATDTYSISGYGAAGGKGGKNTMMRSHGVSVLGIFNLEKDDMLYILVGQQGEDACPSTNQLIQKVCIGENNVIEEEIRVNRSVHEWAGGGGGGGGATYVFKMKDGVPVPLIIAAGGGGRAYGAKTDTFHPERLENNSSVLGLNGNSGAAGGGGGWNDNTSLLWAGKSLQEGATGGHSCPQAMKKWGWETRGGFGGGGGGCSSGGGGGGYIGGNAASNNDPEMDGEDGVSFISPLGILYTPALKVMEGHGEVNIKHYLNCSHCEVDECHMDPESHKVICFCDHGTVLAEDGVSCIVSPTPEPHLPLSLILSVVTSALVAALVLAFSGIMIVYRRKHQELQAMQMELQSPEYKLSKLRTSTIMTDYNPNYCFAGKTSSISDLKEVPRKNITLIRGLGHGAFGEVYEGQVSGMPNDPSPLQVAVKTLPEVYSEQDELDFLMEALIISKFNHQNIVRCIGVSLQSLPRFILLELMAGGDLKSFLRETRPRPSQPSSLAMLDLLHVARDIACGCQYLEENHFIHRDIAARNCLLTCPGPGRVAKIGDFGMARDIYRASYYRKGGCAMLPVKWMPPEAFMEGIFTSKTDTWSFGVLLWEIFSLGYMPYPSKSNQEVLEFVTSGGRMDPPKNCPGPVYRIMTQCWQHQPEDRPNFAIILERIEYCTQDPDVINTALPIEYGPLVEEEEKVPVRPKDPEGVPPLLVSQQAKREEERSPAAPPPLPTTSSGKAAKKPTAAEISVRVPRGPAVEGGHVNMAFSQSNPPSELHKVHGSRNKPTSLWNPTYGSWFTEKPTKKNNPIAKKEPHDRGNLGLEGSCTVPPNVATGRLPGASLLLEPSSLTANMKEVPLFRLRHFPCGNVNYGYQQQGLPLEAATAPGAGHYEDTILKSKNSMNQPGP
T11 sequence (Q15746 whole entry): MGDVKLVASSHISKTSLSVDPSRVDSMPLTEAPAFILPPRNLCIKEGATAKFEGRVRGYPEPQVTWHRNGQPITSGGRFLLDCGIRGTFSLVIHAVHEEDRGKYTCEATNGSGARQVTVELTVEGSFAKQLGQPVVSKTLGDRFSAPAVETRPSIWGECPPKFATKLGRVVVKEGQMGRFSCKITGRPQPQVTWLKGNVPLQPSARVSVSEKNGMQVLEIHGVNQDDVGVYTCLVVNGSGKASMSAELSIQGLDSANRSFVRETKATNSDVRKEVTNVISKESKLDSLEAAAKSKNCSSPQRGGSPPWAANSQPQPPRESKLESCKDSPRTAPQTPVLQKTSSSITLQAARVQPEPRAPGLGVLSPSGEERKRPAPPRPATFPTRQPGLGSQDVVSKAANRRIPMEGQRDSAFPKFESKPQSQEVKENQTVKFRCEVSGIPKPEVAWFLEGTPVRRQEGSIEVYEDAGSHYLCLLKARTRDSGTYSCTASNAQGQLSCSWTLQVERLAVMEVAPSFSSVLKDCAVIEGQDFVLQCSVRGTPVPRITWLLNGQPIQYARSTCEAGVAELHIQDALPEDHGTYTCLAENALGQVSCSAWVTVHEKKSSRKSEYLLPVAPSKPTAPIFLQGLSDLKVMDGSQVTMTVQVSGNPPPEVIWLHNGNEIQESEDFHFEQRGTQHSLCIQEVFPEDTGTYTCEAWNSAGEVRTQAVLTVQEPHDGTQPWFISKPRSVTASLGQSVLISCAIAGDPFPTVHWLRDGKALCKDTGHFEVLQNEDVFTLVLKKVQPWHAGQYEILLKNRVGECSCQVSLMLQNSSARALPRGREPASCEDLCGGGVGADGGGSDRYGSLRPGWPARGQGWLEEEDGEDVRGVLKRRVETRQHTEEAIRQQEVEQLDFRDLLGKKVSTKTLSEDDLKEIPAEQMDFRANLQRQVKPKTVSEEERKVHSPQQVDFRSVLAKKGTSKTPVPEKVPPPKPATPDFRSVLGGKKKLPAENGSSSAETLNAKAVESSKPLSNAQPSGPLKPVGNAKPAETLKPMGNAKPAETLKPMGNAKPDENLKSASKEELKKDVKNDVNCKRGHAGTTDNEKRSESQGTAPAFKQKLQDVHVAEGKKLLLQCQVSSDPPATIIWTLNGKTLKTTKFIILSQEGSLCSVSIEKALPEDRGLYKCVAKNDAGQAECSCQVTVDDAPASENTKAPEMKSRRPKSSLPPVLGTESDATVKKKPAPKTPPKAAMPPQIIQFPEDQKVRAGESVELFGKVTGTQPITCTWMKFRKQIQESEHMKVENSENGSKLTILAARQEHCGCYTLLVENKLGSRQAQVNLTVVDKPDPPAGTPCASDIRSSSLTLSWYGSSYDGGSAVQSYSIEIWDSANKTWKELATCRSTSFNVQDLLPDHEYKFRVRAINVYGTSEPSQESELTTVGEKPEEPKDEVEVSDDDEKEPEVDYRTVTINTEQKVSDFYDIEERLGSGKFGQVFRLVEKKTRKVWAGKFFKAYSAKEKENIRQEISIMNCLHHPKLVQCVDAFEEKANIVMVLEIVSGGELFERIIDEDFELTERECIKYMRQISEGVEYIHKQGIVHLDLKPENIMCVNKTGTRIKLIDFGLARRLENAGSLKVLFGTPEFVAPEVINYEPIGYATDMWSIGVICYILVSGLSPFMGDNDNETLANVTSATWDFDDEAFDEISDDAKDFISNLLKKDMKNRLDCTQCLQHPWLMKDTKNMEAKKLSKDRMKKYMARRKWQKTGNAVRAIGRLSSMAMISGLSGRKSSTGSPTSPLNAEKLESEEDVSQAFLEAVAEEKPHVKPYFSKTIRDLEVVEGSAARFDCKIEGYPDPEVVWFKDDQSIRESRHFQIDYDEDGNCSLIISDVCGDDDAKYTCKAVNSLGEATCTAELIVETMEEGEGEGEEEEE
T3 sequence (Q9UM73 19-1620 L1196M): as the sequence (Q9UM73 19-1620 C1156Y) above, with Y1138C, L1178M counted along it
T5 sequence (P49760 whole entry): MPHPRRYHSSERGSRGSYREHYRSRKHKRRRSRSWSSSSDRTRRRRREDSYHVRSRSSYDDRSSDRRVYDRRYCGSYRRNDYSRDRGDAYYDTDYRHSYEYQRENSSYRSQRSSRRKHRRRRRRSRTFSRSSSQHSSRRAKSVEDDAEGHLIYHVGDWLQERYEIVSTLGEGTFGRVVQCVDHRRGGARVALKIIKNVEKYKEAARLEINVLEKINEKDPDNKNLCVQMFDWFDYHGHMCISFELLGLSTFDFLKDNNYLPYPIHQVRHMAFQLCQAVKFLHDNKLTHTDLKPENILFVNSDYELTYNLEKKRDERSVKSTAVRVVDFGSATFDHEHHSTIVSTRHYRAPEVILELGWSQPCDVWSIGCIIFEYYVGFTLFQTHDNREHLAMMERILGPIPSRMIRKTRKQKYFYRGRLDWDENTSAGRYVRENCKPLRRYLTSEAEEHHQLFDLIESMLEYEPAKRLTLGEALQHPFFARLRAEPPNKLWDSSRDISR
T2 sequence (Q9UM73 19-1620): as the sequence (Q9UM73 19-1620 C1156Y) above, with Y1138C counted along it

`CCNc1cc(Nc2ccc(S(=O)(=O)N3CCC(N4CCOCC4)CC3)c3c2OCCO3)nc2[nH]cc(C(F)(F)F)c12` [Example 96, N^4-ethyl-N^6-(8-((4-morpholonopiperidin-1-yl)sulfonyl)-2,3-dihydrobenzo [b] [1,4]dioxin-5-yl)-3-(trifluoromethyl)-1H-pyrrolo[2,3-b]pyridine-4,6-diamine]: the remaining binding at 1 µM in [1] is 10%; in test [2], 9.5%; in [3] it was 28%; in test [4], 9.7%; in test [5], 1.2%; in test [6], 27%. The remaining binding at 1 µM was found to be 0.3% in [7]; 3% in test [8]; 21% in [9]; 14% in test [10]; 37% in test [11].
As for `CCNc1cc(Nc2ccc(C(=O)N3CCC(N4C[C@@H]5C[C@H]4CO5)CC3)c3c2OCC3)nc2[nH]cc(C(F)(F)F)c12` [Example 105, (4-((1S,4S)-2-oxa-5-azabicyclo[2.2.1]heptan-5-yl)piperidin-1-yl)(7-((4-(ethylamino)-3-(trifluoromethyl)-1H-pyrrolo[2,3-b]pyridin-6-yl)amino)-2,3-dihydrobenzofuran-4-yl)methanone], the remaining binding at 1 µM turned out to be 2% in test [1]; 0.3% in [2]; 2.3% in test [3]; 1.5% in test [4]; 0.35% in test [5]; 5.9% in test [6]. Also, the remaining binding at 1 µM in test [7] was found to be 5.5%; in test [8] it was 0.9%; in test [9], 8%; in test [10], 4.8%; in test [11], 1.3%.
For the compound `CNc1cc(Nc2ccc(C(=O)N3CCC(N4CCOCC4)CC3)c3c2OCCO3)nc2[nH]cc(C(F)(F)F)c12` [Example 160, (8-((4-(methylamino)-3-(trifluoromethyl)-1H-pyrrolo[2,3-b]pyridin-6-yl)amino)-2,3-dihydrobenzo [b] [1,4]dioxin-5-yl)(4-morpholinopiperidin-1-yl)methanone], the remaining binding at 1 µM in test [1] is 0.9%; in test [2], 0.65%; in test [3], 1.3%; in test [4], 13%; in [5], 0.65%; in test [6], 13%. Further, the remaining binding at 1 µM in [7] is 0.55%; in test [8], 0%; in [9], 20%; in test [10], 6.3%; in test [11] it was 0%.
Turning to `CCCNc1cc(Nc2ccc(C(=O)N3CCC(N4CCOCC4)CC3)c3c2OCCO3)nc2[nH]cc(C(F)(F)F)c12` [Example 162, (4-morpholinopiperidin-1-yl)(8-((4-(propylamino)-3-(trifluoromethyl)-1H-pyrrolo[2,3-b]pyridin-6-yl)amino)-2,3-dihydrobenzo[b] [1,4]dioxin-5-yl)methanone], the remaining binding at 1 µM in test [1] came out at 0.9%; in [2], 0.65%; in [3], 1.3%; in test [4], 13%; in test [5], 0.65%; in [6], 13%. In addition, the remaining binding at 1 µM in [7] was 0.55%; in [8], 0%; in test [9] it was 20%; in [10], 6.3%; in test [11] it was 0%.
`CNc1cc(Nc2ccc(S(=O)(=O)N3CCC(N4CCOCC4)CC3)cc2OC)nc2[nH]cc(C(F)(F)F)c12` [Example 184, N^6-(2-methoxy-4-((4-morpholinopiperidin-1-yl)sulfonyl)phenyl)-N^4-methyl-3-(trifluoromethyl)-1H-pyrrolo[2,3-b]pyridine-4,6-diamine]: the remaining binding at 1 µM in [1] is 7%; in test [2], 15%; in test [3], 23%; in test [4] it was 3.4%; in test [5], 0.3%; in test [6] it was 7.8%. In addition, the remaining binding at 1 µM turned out to be 0.45% in test [7]; 13% in test [8]; 14% in [9]; 27% in test [10]; 8% in [11].
As for `CNc1cc(Nc2ccc(P3(=O)CCN(C4CC4)CC3)cc2OC)nc2[nH]cc(C(F)(F)F)c12` [Example 205, 1-cyclopropyl-4-(3-methoxy-4-((4-(methylamino)-3-(trifluoromethyl)-1H-pyrrolo[2,3-b]pyridin-6-yl)amino)phenyl)-1,4-azaphosphinane 4-oxide], the remaining binding at 1 µM in [1] was found to be 1.3%; in test [2] it was 1.4%; in test [3], 1.6%; in [4], 18%; in [5], 0.15%; in test [6], 37%. Also, the remaining binding at 1 µM in test [7] was 0.25%; in test [8] it was 2.5%; in test [9] it was 28%; in test [10], 12%; in test [11], 0%.
